The record followed here is PubChem BioAssay (NCI).

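In this assay, cells in 96-well plates receive the compound at five concentrations for 48 hours. Endpoints are linearly interpolated between the surrounding concentrations. TGI is the concentration that stops growth completely.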

In one assay the test system is HOP-92 NSCLC. As to the kind of experiment: NCI tumour cell line growth inhibition, 48 h.
`COc1ccc(C2c3cc4c(cc3C(O)C3CCC(=O)N23)OCO4)cc1` (stereo not given) registered a TGI of more than 100 µM.

`CC1(C)C(=O)N(O)C(C)(C)N1O` had a TGI of more than 10 µM.

In turn, `CCOC(=O)/C(O)=C(/C=N\C(=S)Nc1ccccc1Cl)C(=O)OCC` gave a TGI of 90.9 µM.

With `CCOC(=O)CCC(NC(=O)Cc1ccc(Nc2nc3ccccc3nc2-c2ccccc2)cc1)C(=O)OCC` (stereo not given), the TGI is 45.8 µM.

The compound `Cc1nc2sc(CCl)nn2c(=O)c1Cl` had a TGI of 18.7 µM.

Compound `COc1ccc(/C=C(\Cl)c2ccc(OC)c(OC)c2)cc1OC` yielded a TGI of more than 100 µM.

As to `CCOC(=O)c1ccc(C(=O)OCC)n1-c1cc2cc(c1)CSCc1cc(cc(-n3c(C(=O)OCC)ccc3C(=O)OCC)c1)CSC2`, the TGI was more than 10 µM.

Turning to `Cc1ccc(NCC2CC/C(=C\c3ccc(Cl)cc3)C2=O)cc1` (stereo not given), the TGI turned out to be 30.6 µM.

Compound `COc1cc(OCc2ccc3nc(-c4ccccc4)c(N)nc3c2)cc(OC)c1OC` had a TGI of 50 µM.

Compound `O=S1(=O)c2cnccc2NC(=NCc2cccc3ccccc23)N1c1ccccc1` returned a TGI of more than 100 µM.

`Cc1occc1C(=S)Nc1ccc(Cl)c(C(=O)OCC(F)(F)F)c1` displayed a TGI of 44.1 µM.

In the next assay the test system is SW-620 colon. Description: NCI tumour cell line growth inhibition, 48 h.
The compound `COc1ccc(C2c3cc4c(cc3C(O)C3CCC(=O)N23)OCO4)cc1` (stereo not given) displayed a TGI of more than 100 µM.

As for `CC1(C)C(=O)N(O)C(C)(C)N1O`, the TGI is more than 10 µM.

`CCOC(=O)/C(O)=C(/C=N\C(=S)Nc1ccccc1Cl)C(=O)OCC`: the TGI was more than 100 µM.

`CCOC(=O)CCC(NC(=O)Cc1ccc(Nc2nc3ccccc3nc2-c2ccccc2)cc1)C(=O)OCC` (stereo not given) gave a TGI of more than 100 µM.

Regarding `Cc1nc2sc(CCl)nn2c(=O)c1Cl`, the TGI was found to be 25.6 µM.

`COc1ccc(/C=C(\Cl)c2ccc(OC)c(OC)c2)cc1OC` returned a TGI of more than 100 µM.

Take `CCOC(=O)c1ccc(C(=O)OCC)n1-c1cc2cc(c1)CSCc1cc(cc(-n3c(C(=O)OCC)ccc3C(=O)OCC)c1)CSC2`: the TGI was more than 10 µM.

Turning to `Cc1ccc(NCC2CC/C(=C\c3ccc(Cl)cc3)C2=O)cc1` (stereo not given), the TGI amounted to 16.5 µM.

In turn, `COc1cc(OCc2ccc3nc(-c4ccccc4)c(N)nc3c2)cc(OC)c1OC` came in with a TGI of more than 100 µM.

For `O=S1(=O)c2cnccc2NC(=NCc2cccc3ccccc23)N1c1ccccc1`, the TGI was more than 100 µM.

Regarding `Cc1occc1C(=S)Nc1ccc(Cl)c(C(=O)OCC(F)(F)F)c1`, the TGI amounted to 56.3 µM.

For another assay, the system named is HCC-2998 colon. As to the kind of experiment: NCI tumour cell line growth inhibition, 48 h.
`COc1ccc(C2c3cc4c(cc3C(O)C3CCC(=O)N23)OCO4)cc1` (stereo not given) registered a TGI of more than 100 µM.

`CC1(C)C(=O)N(O)C(C)(C)N1O` came in with a TGI of more than 10 µM.

With `CCOC(=O)/C(O)=C(/C=N\C(=S)Nc1ccccc1Cl)C(=O)OCC`, the TGI is more than 100 µM.

In turn, `CCOC(=O)CCC(NC(=O)Cc1ccc(Nc2nc3ccccc3nc2-c2ccccc2)cc1)C(=O)OCC` (stereo not given) showed a TGI of more than 100 µM.

The compound `Cc1nc2sc(CCl)nn2c(=O)c1Cl` had a TGI of 37.7 µM.

Turning to `COc1ccc(/C=C(\Cl)c2ccc(OC)c(OC)c2)cc1OC`, the TGI was more than 100 µM.

In the case of `CCOC(=O)c1ccc(C(=O)OCC)n1-c1cc2cc(c1)CSCc1cc(cc(-n3c(C(=O)OCC)ccc3C(=O)OCC)c1)CSC2`, the TGI is more than 10 µM.

On to `Cc1ccc(NCC2CC/C(=C\c3ccc(Cl)cc3)C2=O)cc1` (stereo not given), for which the TGI is more than 69.8 µM.

For the compound `COc1cc(OCc2ccc3nc(-c4ccccc4)c(N)nc3c2)cc(OC)c1OC`, the TGI is more than 100 µM.

The compound `O=S1(=O)c2cnccc2NC(=NCc2cccc3ccccc23)N1c1ccccc1` came in with a TGI of more than 100 µM.

As to `Cc1occc1C(=S)Nc1ccc(Cl)c(C(=O)OCC(F)(F)F)c1`, the TGI was 35.1 µM.

The test system of another assay is HL-60(TB) leukemia. Description: NCI tumour cell line growth inhibition, 48 h.
`COc1ccc(C2c3cc4c(cc3C(O)C3CCC(=O)N23)OCO4)cc1` (stereo not given) registered a TGI of more than 100 µM.

`CC1(C)C(=O)N(O)C(C)(C)N1O` showed a TGI of more than 10 µM.

With `CCOC(=O)/C(O)=C(/C=N\C(=S)Nc1ccccc1Cl)C(=O)OCC`, the TGI was more than 100 µM.

`CCOC(=O)CCC(NC(=O)Cc1ccc(Nc2nc3ccccc3nc2-c2ccccc2)cc1)C(=O)OCC` (stereo not given) yielded a TGI of more than 100 µM.

With `Cc1nc2sc(CCl)nn2c(=O)c1Cl`, the TGI was 29.8 µM.

In the case of `COc1ccc(/C=C(\Cl)c2ccc(OC)c(OC)c2)cc1OC`, the TGI was more than 100 µM.

Regarding `CCOC(=O)c1ccc(C(=O)OCC)n1-c1cc2cc(c1)CSCc1cc(cc(-n3c(C(=O)OCC)ccc3C(=O)OCC)c1)CSC2`, the TGI was more than 10 µM.

As to `Cc1ccc(NCC2CC/C(=C\c3ccc(Cl)cc3)C2=O)cc1` (stereo not given), the TGI worked out at 13.7 µM.

The compound `COc1cc(OCc2ccc3nc(-c4ccccc4)c(N)nc3c2)cc(OC)c1OC` showed a TGI of 32.4 µM.

The compound `O=S1(=O)c2cnccc2NC(=NCc2cccc3ccccc23)N1c1ccccc1` displayed a TGI of more than 53.7 µM.

Compound `Cc1occc1C(=S)Nc1ccc(Cl)c(C(=O)OCC(F)(F)F)c1` showed a TGI of 65.6 µM.

The subject of the next assay is DU-145 prostate. Description: NCI tumour cell line growth inhibition, 48 h.
`COc1ccc(C2c3cc4c(cc3C(O)C3CCC(=O)N23)OCO4)cc1` (stereo not given) returned a TGI of more than 100 µM.

Turning to `CC1(C)C(=O)N(O)C(C)(C)N1O`, the TGI is more than 10 µM.

`CCOC(=O)/C(O)=C(/C=N\C(=S)Nc1ccccc1Cl)C(=O)OCC` showed a TGI of more than 100 µM.

`CCOC(=O)CCC(NC(=O)Cc1ccc(Nc2nc3ccccc3nc2-c2ccccc2)cc1)C(=O)OCC` (stereo not given) had a TGI of more than 100 µM.

The compound `Cc1nc2sc(CCl)nn2c(=O)c1Cl` had a TGI of 29.7 µM.

`COc1ccc(/C=C(\Cl)c2ccc(OC)c(OC)c2)cc1OC`: the TGI was more than 100 µM.

In turn, `CCOC(=O)c1ccc(C(=O)OCC)n1-c1cc2cc(c1)CSCc1cc(cc(-n3c(C(=O)OCC)ccc3C(=O)OCC)c1)CSC2` showed a TGI of more than 10 µM.

`Cc1ccc(NCC2CC/C(=C\c3ccc(Cl)cc3)C2=O)cc1` (stereo not given) showed a TGI of more than 80.6 µM.

Regarding `COc1cc(OCc2ccc3nc(-c4ccccc4)c(N)nc3c2)cc(OC)c1OC`, the TGI stood at 77.8 µM.

On to `O=S1(=O)c2cnccc2NC(=NCc2cccc3ccccc23)N1c1ccccc1`, for which the TGI was more than 100 µM.

With `Cc1occc1C(=S)Nc1ccc(Cl)c(C(=O)OCC(F)(F)F)c1`, the TGI stood at 47.1 µM.
